{"source": "patent US20140275282A1", "about": "“Treating osteopenia and related disorders with geranylgeranyl acetone and derivatives thereof” (COYOTE PHARMACEUTICALS, INC., priority 2013, published 2014)", "system": "osteoclast-mediated bone resorption", "assay": "Inhibition of osteoclast function in vivo by monitoring bone resorption in young growing mice", "details": "young growing mice aged 3-4 weeks, subcutaneous bid for 14 days (5 mg/kg/day)", "experimental": "GGA and derivatives can be tested for their ability to modulate osteoclast function by administering to animals and monitoring bone resorption. One model is to determine the effects on bone resorption of young growing mice as previously described (Schenk et al., Calcif. Tissues Int 38:342-349, 1986; Simonet et al., Cell 89, 308-319, 1997). Young growing mice aged 3-4 weeks, weight range 9.2-15.7 g are divided into groups of ten mice per group. These mice are injected subcutaneously with saline or test compounds bid for 14 days (5 mg/kg/day). The mice are then radiographed before treatment, at day 7 and on day 14. The mice were sacrificed 24 hours after the final injection. The right femur is then removed, fixed in zinc formalin, decalcified in formic acid and embedded in paraffin. Sections are cut through the mid region of the distal femoral metaphysis and the femoral shaft. Bone density, by histomorphometry, is determined in six adjacent regions extending from the metaphyseal limit of the growth plate, through the primary and secondary spongiosa and into the femoral diaphysis (shaft). […] This is a region where bone is rapidly removed by osteoclast-mediated bone resorption in mice. In these rapidly growing young mice, the increase in bone in this region observed with treatment is consistent with an inhibition of bone resorption.", "data": [{"smiles": "CC(=O)CCC=C(C)CCC=C(C)CCC=C(C)CCC=C(C)C", "note": "[GGA, Geranylgeranyl acetone]", "values": [{"measurement": "Radiographic changes: zone of bone density in the spongiosa associated with the growth plates, relative to controls", "setting": "after seven days of treatment", "value": "increased bone density"}, {"measurement": "Histological changes: bone density (histomorphometry) in distal femoral metaphysis, regions 1.1 to 2.65 mm from the growth plate", "setting": "right femur removed 24 hours after final injection", "value": "increased bone density"}]}]}
